Active and inactive are the calls of the source. The rule behind the calls is not given here.
Key:
[1] = target: Neuronal acetylcholine receptor; alpha4/beta2 (Rattus norvegicus, UniProt P09483+P12390); experiment: Displacement of [3H]cytisine from alpha-4-beta-2 ACHR in rat brain homogenate; assay type: tissue-based
[2] = target: T1, Neuronal acetylcholine receptor; alpha4/beta2 (Homo sapiens, UniProt P17787+P43681); experiment: Maximal agonist activity on human alpha-4-beta-2 ACHR expressed in HEK293 cells assessed as change in intracellular calcium concentration by FLIPR relative to nicotine; assay type: functional, cell-based
[3] = target: T1, Neuronal acetylcholine receptor; alpha4/beta2; experiment: Agonist activity at human alpha4beta2 ACHR expressed in HEK293 cells assessed as change in intracellular calcium concentration by FLIPR; assay type: functional, cell-based
[4] = target: T2, Neuronal acetylcholine receptor; alpha3/beta4 (Homo sapiens, UniProt P30926+P32297); experiment: Agonist activity at human alpha-3-beta-4 ACHR expressed in HEK293 cells assessed as change in intracellular calcium concentration by FLIPR; assay type: functional, cell-based
[5] = target: T2, Neuronal acetylcholine receptor; alpha3/beta4; experiment: Maximal agonist activity at human alpha-3-beta-4 ACHR expressed in HEK293 cells assessed as change in intracellular calcium concentration by FLIPR relative to nicotine; assay type: functional, cell-based
Rattus norvegicus [6] = experiment: Activity in rat formalin model measured as reduction in flinches at 6.2 umol/kg, ip; assay type: functional; design: scale not given: the % may be the effect or the level left
Rattus norvegicus [7] = experiment: Induction of behavioral side effects in rat formalin model upto 19 umol/kg, […]; assay type: functional, organism-based
Rattus norvegicus [8] = species: Rattus norvegicus; experiment: Activity in rat formalin model measured as reduction in flinches; assay type: functional, organism-based
Rattus norvegicus [9] = experiment: Activity in rat formalin model measured as reduction in flinches at 19 umol/kg, ip; assay type: functional
Homo sapiens = species: Homo sapiens; experiment: Selectivity for human alpha4beta2 ACHR over alpha-3-beta-4 ACHR; assay type: functional

Chain of Neuronal acetylcholine receptor; alpha4/beta2 (Rattus norvegicus, UniProt P09483+P12390) (P09483 whole entry): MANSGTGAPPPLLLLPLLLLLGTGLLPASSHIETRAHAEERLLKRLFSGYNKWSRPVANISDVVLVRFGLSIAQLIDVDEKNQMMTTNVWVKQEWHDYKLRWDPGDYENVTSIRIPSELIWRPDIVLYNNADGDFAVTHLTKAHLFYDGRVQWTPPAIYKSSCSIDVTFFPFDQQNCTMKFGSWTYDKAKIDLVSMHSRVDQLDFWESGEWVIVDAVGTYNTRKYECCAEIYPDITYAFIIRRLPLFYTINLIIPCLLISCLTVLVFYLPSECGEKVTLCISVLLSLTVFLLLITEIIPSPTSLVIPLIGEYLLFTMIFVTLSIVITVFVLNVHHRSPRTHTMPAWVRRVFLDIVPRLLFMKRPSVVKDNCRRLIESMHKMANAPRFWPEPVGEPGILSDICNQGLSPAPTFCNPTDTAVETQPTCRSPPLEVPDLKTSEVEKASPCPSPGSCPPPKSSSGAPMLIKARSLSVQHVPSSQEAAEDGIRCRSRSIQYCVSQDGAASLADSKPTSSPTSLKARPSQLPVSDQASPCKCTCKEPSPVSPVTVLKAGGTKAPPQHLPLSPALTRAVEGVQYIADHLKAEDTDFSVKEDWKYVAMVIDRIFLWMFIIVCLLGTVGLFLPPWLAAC
Chain of Neuronal acetylcholine receptor; alpha4/beta2 (Rattus norvegicus, UniProt P09483+P12390) (P12390 whole entry): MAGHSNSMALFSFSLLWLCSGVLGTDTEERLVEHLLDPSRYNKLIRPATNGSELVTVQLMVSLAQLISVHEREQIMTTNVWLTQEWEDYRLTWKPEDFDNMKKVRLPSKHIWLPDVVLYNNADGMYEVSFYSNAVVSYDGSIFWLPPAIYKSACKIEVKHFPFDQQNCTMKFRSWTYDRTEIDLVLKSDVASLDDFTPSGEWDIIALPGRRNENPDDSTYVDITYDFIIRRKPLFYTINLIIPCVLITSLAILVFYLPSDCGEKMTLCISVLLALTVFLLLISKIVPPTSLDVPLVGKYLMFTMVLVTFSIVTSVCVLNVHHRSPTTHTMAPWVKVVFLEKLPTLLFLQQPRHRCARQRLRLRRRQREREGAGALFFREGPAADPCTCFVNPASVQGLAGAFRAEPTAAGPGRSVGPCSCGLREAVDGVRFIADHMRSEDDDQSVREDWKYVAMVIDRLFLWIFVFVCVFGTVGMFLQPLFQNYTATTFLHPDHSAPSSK
T2 sequence (P30926 whole entry): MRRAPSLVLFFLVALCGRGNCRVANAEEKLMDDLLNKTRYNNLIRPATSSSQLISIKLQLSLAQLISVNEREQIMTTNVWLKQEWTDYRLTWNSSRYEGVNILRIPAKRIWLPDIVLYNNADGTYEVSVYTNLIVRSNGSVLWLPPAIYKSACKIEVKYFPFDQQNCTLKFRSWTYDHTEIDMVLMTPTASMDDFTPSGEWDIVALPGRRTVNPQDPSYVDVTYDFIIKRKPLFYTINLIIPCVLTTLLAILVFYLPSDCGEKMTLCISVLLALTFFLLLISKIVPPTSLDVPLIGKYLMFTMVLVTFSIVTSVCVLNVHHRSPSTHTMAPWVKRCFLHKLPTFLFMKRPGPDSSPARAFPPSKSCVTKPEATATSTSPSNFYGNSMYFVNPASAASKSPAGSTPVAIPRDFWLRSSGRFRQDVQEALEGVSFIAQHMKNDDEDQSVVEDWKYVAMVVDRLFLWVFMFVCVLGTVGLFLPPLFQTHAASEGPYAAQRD
T2 sequence (P32297 whole entry): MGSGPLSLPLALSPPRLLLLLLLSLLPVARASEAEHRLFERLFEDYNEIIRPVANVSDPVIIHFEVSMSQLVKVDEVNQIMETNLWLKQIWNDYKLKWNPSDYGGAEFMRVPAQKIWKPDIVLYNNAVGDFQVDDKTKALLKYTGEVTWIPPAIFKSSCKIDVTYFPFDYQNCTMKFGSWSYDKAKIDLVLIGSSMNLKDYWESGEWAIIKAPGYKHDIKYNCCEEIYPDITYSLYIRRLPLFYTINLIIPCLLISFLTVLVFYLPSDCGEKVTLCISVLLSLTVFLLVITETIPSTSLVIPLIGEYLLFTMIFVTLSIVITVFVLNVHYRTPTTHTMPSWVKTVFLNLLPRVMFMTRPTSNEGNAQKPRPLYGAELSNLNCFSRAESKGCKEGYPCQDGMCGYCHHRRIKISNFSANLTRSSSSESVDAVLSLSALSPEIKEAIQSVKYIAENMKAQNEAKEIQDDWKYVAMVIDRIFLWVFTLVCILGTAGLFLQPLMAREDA
T1 sequence (P17787 whole entry): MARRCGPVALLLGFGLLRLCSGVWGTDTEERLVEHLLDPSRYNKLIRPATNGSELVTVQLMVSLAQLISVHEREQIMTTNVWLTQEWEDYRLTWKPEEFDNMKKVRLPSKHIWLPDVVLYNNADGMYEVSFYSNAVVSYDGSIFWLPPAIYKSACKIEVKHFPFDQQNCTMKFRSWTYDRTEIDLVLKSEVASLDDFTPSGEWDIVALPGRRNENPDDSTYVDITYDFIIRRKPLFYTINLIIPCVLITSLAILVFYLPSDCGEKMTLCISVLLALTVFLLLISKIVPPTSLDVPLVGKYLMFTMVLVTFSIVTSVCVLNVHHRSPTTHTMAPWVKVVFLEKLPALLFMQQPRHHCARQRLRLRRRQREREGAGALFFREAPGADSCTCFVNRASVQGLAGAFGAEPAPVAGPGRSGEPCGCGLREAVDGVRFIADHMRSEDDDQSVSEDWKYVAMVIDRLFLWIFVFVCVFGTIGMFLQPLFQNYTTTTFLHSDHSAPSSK
T1 sequence (P43681 whole entry): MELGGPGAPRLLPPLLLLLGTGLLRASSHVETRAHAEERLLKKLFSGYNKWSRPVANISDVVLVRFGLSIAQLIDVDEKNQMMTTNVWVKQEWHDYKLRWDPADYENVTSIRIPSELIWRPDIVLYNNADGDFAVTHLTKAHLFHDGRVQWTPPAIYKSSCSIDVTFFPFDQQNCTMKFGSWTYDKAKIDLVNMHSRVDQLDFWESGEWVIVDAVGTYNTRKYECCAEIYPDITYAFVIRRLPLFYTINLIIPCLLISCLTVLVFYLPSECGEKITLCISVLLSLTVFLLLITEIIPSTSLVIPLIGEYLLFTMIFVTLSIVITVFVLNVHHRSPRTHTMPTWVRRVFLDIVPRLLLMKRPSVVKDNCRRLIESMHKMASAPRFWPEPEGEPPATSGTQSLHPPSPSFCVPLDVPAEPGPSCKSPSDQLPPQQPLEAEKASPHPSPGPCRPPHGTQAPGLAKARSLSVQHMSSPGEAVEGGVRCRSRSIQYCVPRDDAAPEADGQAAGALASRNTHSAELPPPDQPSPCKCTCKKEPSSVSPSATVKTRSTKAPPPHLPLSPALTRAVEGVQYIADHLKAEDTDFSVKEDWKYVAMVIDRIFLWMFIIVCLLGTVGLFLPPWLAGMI

| SMILES | Ki [1] [nM] | Activity [2] [%] | EC50 [3] [nM] | EC50 [4] [nM] | Activity [5] [%] | Activity (Rattus norvegicus [6]) [%] | Activity (Rattus norvegicus [7]) | Activity (Rattus norvegicus [8]) | Activity (Rattus norvegicus [9]) | Ratio EC50 (Homo sapiens) |
| --- | --- | --- | --- | --- | --- | --- | --- | --- | --- | --- |
| Brc1cc(N2CC[C@H]3CN[C@H]3C2)cnc1Br | 0.014 | 209 | 7.8 | 8.2 | 117 | 99 | inactive | – | – | – |
| c1ncc(N2CC[C@@H]3CN[C@@H]3C2)cn1 | 0.2 | 79 | 4390 | 1020 | 106 | – | – | – | – | – |
| Clc1ccc(N2CC[C@@H]3CN[C@@H]3C2)nn1 | 2.7 | 129 | 359 | 394 | 113 | – | Active | – | – | – |
| c1cncc(N2CC[C@H]3CN[C@H]3C2)c1 | 0.035 | 171 | 71 | 48 | 121 | – | – | – | – | – |
| c1ncc(N2C[C@@H]3CCNC[C@@H]32)cn1 (single isomer, unassigned) | 1.6 | 104 | 8420 | 9940 | 93 | – | – | – | – | – |
| Clc1cc(N2C[C@@H]3CCNC[C@@H]32)cnc1Cl | – | 60 | 271 | 4110 | 69 | – | Active | – | – | – |
| NC(=O)c1cc(N2C[C@H]3CCNC[C@H]32)cnc1Br | – | 133 | 340 | 7460 | 90 | – | – | – | – | – |
| COc1cc(N2C[C@@H]3CCNC[C@@H]32)cnc1Br | 1.4 | 65 | 1690 | 2980 | 84 | – | – | – | – | – |
| COc1cncc(N2CC[C@@H]3CN[C@@H]3C2)c1 | 0.18 | 35 | 2700 | 4500 | 86 | – | – | inactive | – | – |
| NC(=O)c1cc(N2C[C@@H]3CCNC[C@@H]32)cnc1Br | 2.8 | 75 | 1490 | 23300 | 73 | – | – | – | – | – |
| COc1cc(N2CC[C@H]3CN[C@H]3C2)cnc1Br | 0.027 | 217 | 21 | 8 | 120 | – | – | – | – | – |
| Cc1cc(N2C[C@@H]3CCNC[C@@H]32)cnc1Cl | 0.043 | 103 | 76.1 | 1910 | 91 | – | Active | – | inactive | – |
| Brc1cc(N2CC[C@@H]3CN[C@@H]3C2)cnc1Br | 0.024 | 86 | 76 | 110 | 100 | – | – | – | 26% | – |
| COc1cncc(N2CC[C@H]3CN[C@H]3C2)c1 | 0.038 | 178 | 130 | 180 | 103 | – | inactive | Dose-dependent effect | – | – |
| COc1ccc(N2CC[C@H]3CN[C@H]3C2)cn1 | 0.98 | 96 | 2200 | 1100 | 88 | – | – | – | – | – |
| Clc1ccc(N2CC[C@@H]3CN[C@@H]3C2)cn1 | 0.032 | 130 | 24 | 25 | 125 | – | – | – | – | – |
| N#Cc1cc(N2C[C@H]3CCNC[C@H]32)cnc1Br | 0.3 | 157 | 172 | 238 | 100 | – | – | – | – | – |
| Cc1cc(N2C[C@H]3CCNC[C@H]32)cnc1Cl | 0.24 | 142 | 134 | 298 | 103 | – | – | – | 75% | – |
| O=[N+]([O-])c1ccc(N2CC[C@H]3CN[C@H]3C2)cn1 | 1.5 | 196 | 100 | 390 | 119 | – | – | – | – | – |
| N#Cc1cncc(N2CC[C@H]3CN[C@H]3C2)c1 | 0.12 | 112 | 1900 | 1000 | 127 | 80 | – | – | – | – |
| O=[N+]([O-])c1ccc(N2CC[C@@H]3CN[C@@H]3C2)cn1 | 2.4 | 114 | 110 | 830 | 98 | – | Active | – | – | – |
| COc1cncc(N2C[C@@H]3CCNC[C@@H]32)c1 | 4.4 | 44 | 7690 | 63500 | 47 | – | – | – | – | – |
| CCOc1cncc(N2CC[C@@H]3CN[C@@H]3C2)c1 | 0.16 | 18 | 1350 | 2800 | 86 | – | – | – | – | – |
| Clc1cc(N2C[C@H]3CCNC[C@H]32)cnc1Cl | 0.3 | 127 | 176 | 339 | 103 | – | – | – | – | – |
| Clc1cc(N2CC[C@H]3CN[C@H]3C2)cnc1Cl | 0.025 | 221 | 12 | 9.9 | 132 | – | – | – | – | – |

| SMILES | Ki [1] [nM] | Activity [2] [%] | EC50 [3] [nM] | EC50 [4] [nM] | Activity [5] [%] | Activity (Rattus norvegicus [6]) [%] | Activity (Rattus norvegicus [7]) | Activity (Rattus norvegicus [8]) | Activity (Rattus norvegicus [9]) | Ratio EC50 (Homo sapiens) |
| --- | --- | --- | --- | --- | --- | --- | --- | --- | --- | --- |
| Clc1ccc(N2CC[C@H]3CN[C@H]3C2)nn1 | 0.15 | 222 | 78.3 | 64.8 | 128 | – | – | – | – | – |
| Cc1cc(N2CC[C@H]3CN[C@H]3C2)cnc1Cl | 0.031 | 207 | 7.2 | 7.2 | 123 | – | – | – | – | – |
| N#Cc1cncc(N2C[C@H]3CCNC[C@H]32)c1 | 2.6 | 83 | 1930 | 5560 | 71 | – | – | – | – | – |
| Cc1cc(N2CC[C@@H]3CN[C@@H]3C2)cnc1Cl | 0.037 | 90 | 47 | 71 | 103 | – | inactive | – | – | – |
| COc1cc(N2C[C@H]3CCNC[C@H]32)cnc1Br | 0.085 | 120 | 200 | 202 | 98 | – | – | – | – | – |
| c1ncc(N2CC[C@H]3CN[C@H]3C2)cn1 | 0.04 | 181 | 350 | 108 | 121 | – | – | – | – | – |
| c1cncc(N2C[C@@H]3CCNC[C@@H]32)c1 | – | 105 | 410 | 1700 | 98 | – | Active | – | – | – |
| Clc1cc(N2CC[C@@H]3CN[C@@H]3C2)cnc1Cl | 0.027 | 79 | 82 | 110 | 111 | – | – | – | 55% | – |
| Clc1ccc(N2C[C@H]3CCNC[C@H]32)cn1 | 0.8 | 102 | 216 | 1520 | 93 | – | – | – | – | – |
| c1cncc(N2CC[C@@H]3CN[C@@H]3C2)c1 | 0.059 | 112 | 330 | 260 | 118 | – | – | – | – | – |
| COc1cc(N2CC[C@@H]3CN[C@@H]3C2)cnc1Br | 0.069 | 40 | 360 | 160 | 108 | – | – | – | – | – |
| Brc1cncc(N2CC[C@H]3CN[C@H]3C2)c1 | 0.024 | 148 | 150 | 76 | 122 | – | – | – | – | – |
| N#Cc1cc(N2C[C@@H]3CCNC[C@@H]32)cnc1Br | 0.07 | 104 | 109 | 794 | 88 | – | Active | – | – | – |
| N#Cc1cncc(N2CC[C@@H]3CN[C@@H]3C2)c1 | 0.065 | 76 | 1900 | 490 | 116 | – | – | – | inactive | – |
| Cc1cncc(N2CC[C@@H]3CN[C@@H]3C2)c1 | 0.064 | 54 | 650 | 1400 | 87 | – | inactive | – | – | – |
| N#Cc1cncc(N2C[C@@H]3CCNC[C@@H]32)c1 | 0.5 | 64 | 2190 | 2560 | 91 | – | – | – | – | – |
| CCOc1cncc(N2CC[C@H]3CN[C@H]3C2)c1 | 0.052 | 116 | 620 | 124 | 103 | – | – | – | – | – |
| COc1ccc(N2CC[C@@H]3CN[C@@H]3C2)cn1 | 2.7 | 54 | 4980 | 2400 | 93 | – | – | – | – | – |
| c1cncc(N2C[C@H]3CCNC[C@H]32)c1 | – | 84 | 1400 | 1540 | 97 | – | – | – | – | – |
| N/C(=N/O)c1cncc(N2CC[C@@H]3CN[C@@H]3C2)c1 | – | 194 | – | – | 99 | – | – | – | – | – |
| COc1cncc(N2C[C@H]3CCNC[C@H]32)c1 | 0.56 | 104 | 1100 | 4360 | 88 | – | – | – | – | – |
| Brc1cncc(N2CC[C@@H]3CN[C@@H]3C2)c1 (single isomer, unassigned) | 0.053 | 58 | 1000 | 950 | 91 | – | – | – | – | – |
| Clc1ccc(N2CC[C@H]3CN[C@H]3C2)cn1 | 0.019 | 114 | 13 | 29 | 151 | – | – | – | – | 2 |
| N#Cc1cc(N2CC[C@H]3CN[C@H]3C2)cnc1Br | 0.027 | 215 | 6.1 | 4.4 | 133 | – | – | – | – | – |
